In article PMC5128878 (Scientific Reports, 2016):
Where “and” joins values, the source holds several entries; their conditions need not be identical. Equal values may be shown once. Read-outs that look alike come from different tables or passages of the source.

How the values were obtained:
[1] = target: T1, α4β2(V253F) nAChR (Rattus norvegicus, UniProt P09483+P12390, V277F); assay: Two-electrode voltage clamp of ACh currents, α4β2(V253F) nAChRs expressed in Xenopus oocytes; type: cell-based; settings: for IC50: α4β2(V253F), ACh 10 μM
T1 construct: expressed in transfected cells; host or cells: Xenopus laevis oocytes injected with cRNA
T1 sequence (P09483 31-630, stated change not applied): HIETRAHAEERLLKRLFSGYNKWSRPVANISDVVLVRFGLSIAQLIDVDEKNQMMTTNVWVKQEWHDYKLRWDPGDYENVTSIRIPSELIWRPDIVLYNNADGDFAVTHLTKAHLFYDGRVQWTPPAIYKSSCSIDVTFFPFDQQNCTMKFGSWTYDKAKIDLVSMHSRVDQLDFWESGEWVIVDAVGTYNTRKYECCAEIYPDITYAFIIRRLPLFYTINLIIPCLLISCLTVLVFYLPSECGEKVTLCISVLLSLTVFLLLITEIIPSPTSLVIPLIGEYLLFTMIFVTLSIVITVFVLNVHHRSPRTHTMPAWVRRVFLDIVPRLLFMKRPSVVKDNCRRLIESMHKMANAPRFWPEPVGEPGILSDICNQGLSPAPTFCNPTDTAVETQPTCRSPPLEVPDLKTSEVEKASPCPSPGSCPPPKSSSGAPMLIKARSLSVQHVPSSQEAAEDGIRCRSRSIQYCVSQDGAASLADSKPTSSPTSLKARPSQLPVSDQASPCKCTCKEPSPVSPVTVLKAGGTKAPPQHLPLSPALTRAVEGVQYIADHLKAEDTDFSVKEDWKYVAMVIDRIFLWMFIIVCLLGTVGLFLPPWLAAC
T1 sequence (P12390 25-500 V277F): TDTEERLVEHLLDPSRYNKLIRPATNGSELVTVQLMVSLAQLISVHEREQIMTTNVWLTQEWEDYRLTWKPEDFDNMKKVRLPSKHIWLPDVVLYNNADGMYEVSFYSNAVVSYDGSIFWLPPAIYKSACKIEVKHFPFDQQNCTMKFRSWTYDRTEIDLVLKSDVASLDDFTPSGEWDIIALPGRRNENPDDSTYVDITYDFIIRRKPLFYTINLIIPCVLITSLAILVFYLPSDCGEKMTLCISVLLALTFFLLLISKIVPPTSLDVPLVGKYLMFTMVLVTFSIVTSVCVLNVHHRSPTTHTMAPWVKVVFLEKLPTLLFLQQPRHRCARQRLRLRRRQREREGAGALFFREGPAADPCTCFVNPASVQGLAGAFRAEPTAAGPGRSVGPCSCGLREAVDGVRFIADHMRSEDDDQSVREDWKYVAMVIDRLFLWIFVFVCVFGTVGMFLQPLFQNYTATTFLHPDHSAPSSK
Description: (§1) cDNA clones of rat neuronal nAChR subunits (α3, α4, β2 and β4) and mouse muscle subunits (α1, β1, γ and δ) were from the Salk Institute for Biological Studies (Professor Stephen Heinemann). The human α7 and RIC-3 cDNAs were provided by Professor David Sattelle (University College London).
(§2) Oocytes isolated from mature female Xenopus laevis were supplied by the European Xenopus Resource Centre, University of Portsmouth, UK. Oocytes were treated with collagenase (0.5 mg/ml, Sigma type 1 A) in Ca^2+-free solution (96 mM NaCl, 2 mM KCl, 1 mM MgCl2, 5 mM HEPES, 2.5 mM Na-pyruvate, 100 U/mL penicillin, 0.1 mg/mL streptomycin, pH 7.5) with shaking at 19 °C to defolliculate and remove the connective tissue surrounding the cells. After separation, oocytes were washed 7 times with modified Barth’s solution (96 mM NaCl, 2 mM KCl, 1.8 mM CaCl2, 1 mM MgCl2, 5 mM HEPES, 2.5 mM Na-pyruvate, 0.5 mM theophylline, 50 μg/mL gentamicin, pH 7.5) and kept at 19 °C in the same solution.
(§3) Healthy oocytes were injected with cRNA using a Nano-liter Injector (World Precision Instruments Inc, USA). Mixtures of nAChR subunit cRNAs were injected as follows; for heteromeric rat neuronal receptors a 1:1 ratio of α:β at 200 ng/μL; for mouse embryonic muscle a 1:1:1:1 ratio of α:β:γ:δ at 25 ng/μL; human α7 at 100 ng/μL was mixed with RIC-3 at 30 ng/μL. Each oocyte was injected with 50 nL of RNA solution. Injected oocytes were saved in Barth’s solution at 19 °C for two to three days for expression of the target protein. During this time oocytes were regularly checked to remove unhealthy ones.
(§4) Electrophysiological recordings were taken from nAChR-expressing oocytes by two-electrode voltage clamp using a Geneclamp 500 voltage clamp amplifier (Axon instruments, USA). An oocyte was placed in the perfusion chamber using a plastic Pasteur pipette and the bath was perfused (~5 mL/min) with fresh Frog Ringer solution (96 mM NaCl, 2 mM KCl, 1.8 mM CaCl2 and 5 mM HEPES, pH 7.5). Microelectrodes were pulled from borosilicate glass capillaries (Harvard GC150TF-10) using a programmable micropipette puller (Sutter P97, USA), and they had resistances between 0.5 and 2.5 MΩ when filled with 3 M KCl. The oocyte was voltage-clamped at holding potentials (VH) between −60 and −100 mV. […] Currents were recorded to a PC via a digidata 1200 analog-to-digital converter (Axon Instuments, USA) using WinEDR v3.2.6 Software (Dr John Dempster, University of Strathclyde, UK).
(§5) Graphpad Prism 6 was used for data analysis, graph plotting and curve fitting. All plotted points are the mean ± SEM obtained from 4–20 oocytes.

[2] = target: T2, α4β2 nAChR (Rattus norvegicus, UniProt P09483+P12390); assay: cell-based; type: cell-based; settings: for IC50: IC50 (95% CI), ACh 10 μM
T2 construct: expressed in transfected cells; host or cells: Xenopus laevis oocytes injected with cRNA
T2 sequence (P09483 31-630): as the sequence (P09483 31-630, stated change not applied) above
T2 sequence (P12390 25-500): as the sequence (P12390 25-500 V277F) above, with F253V counted along it
Description: as §1, §2, §3, §4, §5

[3] = tested on: human muscle-type nAChRs in TE671 cells; assay: Muscle-type nAChRs in TE671 cells (previous study); type: cell-based; settings: previous study compared with present oocyte data ref 8
[4] = tested on: nAChRs; assay: Two-electrode voltage clamp of Xenopus oocytes expressing nAChRs, statements across tested subtypes; type: cell-based
Description: as §1, §2, §3, §4, §5

[5] = target: T3, α3β4(F255V) nAChR (Rattus norvegicus, UniProt P04757+P12392, F275V); assay: Two-electrode voltage clamp of ACh currents, α3β4(F255V) nAChRs expressed in Xenopus oocytes; type: cell-based; settings: for IC50: α3β4(F255V), ACh 100 μM
T3 construct: expressed in transfected cells; host or cells: Xenopus laevis oocytes injected with cRNA
T3 sequence (P04757 26-499): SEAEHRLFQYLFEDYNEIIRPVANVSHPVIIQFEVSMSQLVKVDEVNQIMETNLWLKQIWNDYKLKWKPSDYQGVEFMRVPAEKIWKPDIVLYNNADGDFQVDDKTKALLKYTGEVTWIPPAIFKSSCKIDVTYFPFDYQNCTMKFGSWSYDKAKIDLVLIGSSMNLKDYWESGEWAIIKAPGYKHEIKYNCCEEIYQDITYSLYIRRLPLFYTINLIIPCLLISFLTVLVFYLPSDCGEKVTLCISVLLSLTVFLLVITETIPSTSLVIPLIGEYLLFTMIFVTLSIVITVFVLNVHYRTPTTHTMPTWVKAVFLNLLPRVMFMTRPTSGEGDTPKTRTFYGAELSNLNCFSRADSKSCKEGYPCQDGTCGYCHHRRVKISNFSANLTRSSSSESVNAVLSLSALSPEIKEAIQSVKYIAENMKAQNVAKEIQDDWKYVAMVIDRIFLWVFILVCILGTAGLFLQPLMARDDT
T3 sequence (P12392 21-495 F275V): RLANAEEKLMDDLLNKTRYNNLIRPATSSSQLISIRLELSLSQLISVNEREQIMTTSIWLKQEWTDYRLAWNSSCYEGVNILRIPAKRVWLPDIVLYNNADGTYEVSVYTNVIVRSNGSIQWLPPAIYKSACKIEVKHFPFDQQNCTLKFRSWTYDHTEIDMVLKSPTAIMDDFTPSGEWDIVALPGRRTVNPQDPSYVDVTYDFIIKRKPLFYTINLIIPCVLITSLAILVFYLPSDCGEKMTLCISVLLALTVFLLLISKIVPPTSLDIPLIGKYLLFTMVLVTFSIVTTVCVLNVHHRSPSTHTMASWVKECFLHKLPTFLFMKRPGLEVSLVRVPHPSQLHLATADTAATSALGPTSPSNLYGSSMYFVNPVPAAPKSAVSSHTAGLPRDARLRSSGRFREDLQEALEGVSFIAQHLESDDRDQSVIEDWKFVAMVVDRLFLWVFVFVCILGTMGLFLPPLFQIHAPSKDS
Description: as §1, §2, §3, §4, §5

[6] = target: T4, α4β4 nAChR (Rattus norvegicus, UniProt P09483+P12392); assay: cell-based; type: cell-based; settings: for IC50: IC50 (95% CI), ACh 10 μM
T4 construct: expressed in transfected cells; host or cells: Xenopus laevis oocytes injected with cRNA
T4 sequence (P09483 31-630): as the sequence (P09483 31-630, stated change not applied) above
T4 sequence (P12392 21-495): as the sequence (P12392 21-495 F275V) above, with V255F counted along it
Description: as §2, §3, §4, §5

[7] = target: T5, α1β1γδ nAChR (Mus musculus, UniProt P02716+P04756+P04760+P09690); assay: cell-based; type: cell-based; settings: α1β1γδ; for IC50: IC50 (95% CI), ACh 10 μM
T5 construct: expressed in transfected cells; host or cells: Xenopus laevis oocytes injected with cRNA
T5 sequence (P04756 21-457): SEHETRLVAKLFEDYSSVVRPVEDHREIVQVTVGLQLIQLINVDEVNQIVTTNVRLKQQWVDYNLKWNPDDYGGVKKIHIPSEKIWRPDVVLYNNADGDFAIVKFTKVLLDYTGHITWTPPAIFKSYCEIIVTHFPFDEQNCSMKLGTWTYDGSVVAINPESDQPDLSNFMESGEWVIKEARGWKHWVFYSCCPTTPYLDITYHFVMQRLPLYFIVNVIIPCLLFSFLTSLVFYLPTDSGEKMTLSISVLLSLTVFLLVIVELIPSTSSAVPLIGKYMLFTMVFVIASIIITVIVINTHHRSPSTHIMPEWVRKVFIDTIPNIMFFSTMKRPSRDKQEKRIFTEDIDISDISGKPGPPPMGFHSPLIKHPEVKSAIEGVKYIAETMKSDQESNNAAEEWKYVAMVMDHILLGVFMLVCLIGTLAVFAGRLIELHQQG
T5 sequence (P09690 24-501): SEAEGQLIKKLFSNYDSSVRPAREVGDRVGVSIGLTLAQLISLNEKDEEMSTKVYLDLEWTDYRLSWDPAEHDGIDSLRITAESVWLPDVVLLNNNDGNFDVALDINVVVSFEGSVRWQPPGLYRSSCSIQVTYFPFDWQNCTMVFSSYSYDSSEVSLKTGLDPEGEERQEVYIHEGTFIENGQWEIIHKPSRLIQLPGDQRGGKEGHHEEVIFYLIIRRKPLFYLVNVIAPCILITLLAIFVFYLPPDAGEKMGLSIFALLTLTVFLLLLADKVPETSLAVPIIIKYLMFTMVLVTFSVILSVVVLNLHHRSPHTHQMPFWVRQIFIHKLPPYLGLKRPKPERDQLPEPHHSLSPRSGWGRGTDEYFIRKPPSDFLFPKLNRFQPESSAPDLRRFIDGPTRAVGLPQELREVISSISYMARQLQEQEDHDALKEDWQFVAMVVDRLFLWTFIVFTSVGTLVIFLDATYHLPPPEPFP
T5 sequence (P04760 23-519): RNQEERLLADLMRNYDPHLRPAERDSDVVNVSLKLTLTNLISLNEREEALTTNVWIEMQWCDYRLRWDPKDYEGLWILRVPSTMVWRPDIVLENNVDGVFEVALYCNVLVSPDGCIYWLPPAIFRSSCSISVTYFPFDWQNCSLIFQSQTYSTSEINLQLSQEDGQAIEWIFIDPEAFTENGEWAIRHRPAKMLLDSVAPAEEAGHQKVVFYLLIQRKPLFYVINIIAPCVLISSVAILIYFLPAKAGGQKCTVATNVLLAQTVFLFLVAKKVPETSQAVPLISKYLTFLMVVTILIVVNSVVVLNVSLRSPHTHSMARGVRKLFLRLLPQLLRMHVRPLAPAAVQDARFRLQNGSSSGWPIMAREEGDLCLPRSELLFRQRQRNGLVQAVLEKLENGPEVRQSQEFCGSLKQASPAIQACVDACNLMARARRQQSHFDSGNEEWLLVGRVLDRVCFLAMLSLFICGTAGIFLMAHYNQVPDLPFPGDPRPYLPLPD
T5 sequence (P02716 25-520): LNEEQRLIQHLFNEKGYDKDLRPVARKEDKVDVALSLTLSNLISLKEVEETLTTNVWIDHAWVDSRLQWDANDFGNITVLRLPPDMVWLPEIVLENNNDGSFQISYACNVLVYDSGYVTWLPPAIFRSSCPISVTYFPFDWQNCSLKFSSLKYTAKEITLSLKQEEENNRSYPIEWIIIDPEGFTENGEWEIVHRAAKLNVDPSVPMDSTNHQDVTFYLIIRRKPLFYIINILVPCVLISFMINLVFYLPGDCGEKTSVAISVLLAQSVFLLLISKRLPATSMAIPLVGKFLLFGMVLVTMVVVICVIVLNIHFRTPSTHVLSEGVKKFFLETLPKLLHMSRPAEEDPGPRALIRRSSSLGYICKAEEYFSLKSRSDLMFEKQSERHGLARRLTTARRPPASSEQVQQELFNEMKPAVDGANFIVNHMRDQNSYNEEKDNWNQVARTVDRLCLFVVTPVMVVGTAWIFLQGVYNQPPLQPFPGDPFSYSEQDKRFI
Description: as §2, §3, §4, §5

[8] = target: α3β2 nAChR (Rattus norvegicus, UniProt P04757+P12390); assay: Two-electrode voltage clamp of ACh currents, α3β2 nAChRs expressed in Xenopus oocytes; settings: for IC50: IC50 (95% CI), ACh 30 μM
Chain of α3β2 nAChR (P04757 26-499): as the sequence (P04757 26-499) above
Chain of α3β2 nAChR (P12390 25-500): as the sequence (P12390 25-500 V277F) above, with F253V counted along it
Description: as §2, §3, §4, §5

[9] = target: T6, α7 nAChR (Homo sapiens, UniProt P36544); assay: Two-electrode voltage clamp of ACh currents, α7 nAChRs (with RIC-3) expressed in Xenopus oocytes; type: cell-based; settings: for IC50: IC50 (95% CI), ACh 100 μM
T6 construct: expressed in transfected cells; host or cells: Xenopus laevis oocytes injected with cRNA
T6 sequence (P36544 23-502): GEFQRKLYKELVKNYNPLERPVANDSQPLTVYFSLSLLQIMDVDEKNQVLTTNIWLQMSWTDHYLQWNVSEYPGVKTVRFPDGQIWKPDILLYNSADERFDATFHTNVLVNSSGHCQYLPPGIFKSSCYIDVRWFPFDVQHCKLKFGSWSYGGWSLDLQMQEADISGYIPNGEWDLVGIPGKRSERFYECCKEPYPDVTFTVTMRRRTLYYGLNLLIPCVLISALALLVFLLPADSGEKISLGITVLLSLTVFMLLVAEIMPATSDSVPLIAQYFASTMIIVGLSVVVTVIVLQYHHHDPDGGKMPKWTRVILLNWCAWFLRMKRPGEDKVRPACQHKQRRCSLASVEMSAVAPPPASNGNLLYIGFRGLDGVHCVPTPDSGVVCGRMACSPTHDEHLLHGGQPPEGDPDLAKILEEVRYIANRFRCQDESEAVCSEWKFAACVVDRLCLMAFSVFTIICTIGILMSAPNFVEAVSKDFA
Description: as §2, §3, §4, §5

[10] = target: T7, α3β4 nAChR (Rattus norvegicus, UniProt P04757+P12392); assay: cell-based
T7 construct: expressed in transfected cells; host or cells: Xenopus laevis oocytes injected with cRNA
T7 sequence (P04757 26-499): as the sequence (P04757 26-499) above
T7 sequence (P12392 21-495): as the sequence (P12392 21-495 F275V) above, with V255F counted along it
Description: as §2, §3, §4, §5

[11] = VH −60 mV, late current (1 min), read-out: IC50 (95% CI), Late
[12] = VH −60 mV, peak current, read-out: IC50 (95% CI), Peak
[13] = VH −80 mV, late current (1 min), read-out: IC50 (95% CI), Late
[14] = VH −80 mV, peak current, read-out: IC50 (95% CI), Peak
[15] = VH −100 mV, late current (1 min), read-out: IC50 (95% CI), Late
[16] = VH −100 mV, peak current, read-out: IC50 (95% CI), Peak

CCCC(=O)N[C@@H](Cc1ccc(O)cc1)C(=O)NCCCCCCCCCCCCN [PhTX-12]
reduction in late current IC50 as compared to α4β2 ([1]; α4β2(V253F) vs α4β2, late current, −80 mV): no significant differences | change in peak current IC50 as compared to α4β2 ([1]; α4β2(V253F) vs α4β2, peak current, −80 mV): no significant differences | IC50 [1, 11]: 410 nM | IC50 [1, 12]: 2220 nM | IC50 [1, 13]: 300 nM | IC50 [1, 14]: 4050 nM | IC50 [1, 15]: 190 nM | IC50 [1, 16]: 3480 nM | IC50 ([2]; Late, α4β2, VH −60 mV, late current (1 min)): 230 nM | IC50 ([2]; Late, α4β2, VH −80 mV, late current (1 min)): 280 nM | IC50 ([2]; Late, α4β2, VH −100 mV, late current (1 min)): 44 nM | IC50 ([2]; Peak, α4β2, VH −60 mV, peak current): 3870 nM | IC50 ([2]; Peak, α4β2, VH −80 mV, peak current): 2170 nM | IC50 ([2]; Peak, α4β2, VH −100 mV, peak current): 1640 nM | times less sensitive than the most sensitive subtype ([2]; α4β2 vs α3β4 (for PhTX-12: α1β1γδ along with α3β4), late current IC50, −80 mV): 3 times | lower potency at human muscle-type nAChRs in TE671 cells than in the present study [3]: 11 fold | effect on membrane current when applied alone ([4]; 100 μM applied alone, VH = −80 mV, oocytes expressing nAChRs): did not produce any effect on membrane current | voltage dependence of inhibition of peak current ([4]; all nAChRs, peak current, VH −60 to −100 mV): voltage-independent for all nAChRs except for homomeric α7 | reversibility of inhibition of nAChRs ([4]; all subunit combinations, 10 μM toxin, −80 mV): fully or almost reversible after 6 min | increase in late current IC50 as compared to α3β4 ([5]; α3β4(F255V) vs α3β4, late current, −80 mV): 3.3 fold | reduction in peak current IC50 as compared to α3β4 ([5]; α3β4(F255V) vs α3β4, peak current, −80 mV): no difference | IC50 [5, 11]: 520 nM | IC50 [5, 12]: 1630 nM | IC50 [5, 13]: 360 nM | IC50 [5, 14]: 2780 nM | IC50 [5, 15]: 68 nM | IC50 [5, 16]: 1050 nM | IC50 ([6]; Late, α4β4, VH −60 mV, late current (1 min)): 250 nM | IC50 ([6]; Late, α4β4, VH −80 mV, late current (1 min)): 290 nM | IC50 ([6]; Late, α4β4, VH −100 mV, late current (1 min)): 190 nM | IC50 ([6]; Peak, α4β4, VH −60 mV, peak current): 1210 nM | IC50 ([6]; Peak, α4β4, VH −80 mV, peak current): 1650 nM | IC50 ([6]; Peak, α4β4, VH −100 mV, peak current): 2770 nM | voltage dependence of inhibition, late current ([6]; α4β4, late current IC50 values, VH −60 to −100 mV): voltage-independent | times less sensitive than the most sensitive subtype ([6]; α4β4 vs α3β4 (for PhTX-12: α1β1γδ along with α3β4), late current IC50, −80 mV): 3 times | IC50 ([7]; Late, VH −60 mV, late current (1 min)): 70 nM | IC50 ([7]; Late, VH −80 mV, late current (1 min)): 100 nM | IC50 ([7]; Late, VH −100 mV, late current (1 min)): 71 nM | IC50 ([7]; Peak, VH −60 mV, peak current): 3160 nM | IC50 ([7]; Peak, VH −80 mV, peak current): 6180 nM | IC50 ([7]; Peak, VH −100 mV, peak current): 5020 nM | surmountability of late current inhibition ([7]; 0.3 μM toxin, late current, −80 mV): insurmountable | surmountability of peak current inhibition by increasing ACh concentrations ([7]; 10 μM toxin, peak current, −80 mV): surmountable | voltage dependence of inhibition, late current ([7]; late current IC50 values, VH −60 to −100 mV): voltage-independent | IC50 ([8]; Late, α3β2, VH −60 mV, late current (1 min)): 3.2 µM | IC50 ([8]; Late, α3β2, VH −80 mV, late current (1 min)): 2.57 µM | IC50 ([8]; Late, α3β2, VH −100 mV, late current (1 min)): 1.38 µM | IC50 ([8]; Peak, α3β2, VH −60 mV, peak current): 65.2 µM | IC50 ([8]; Peak, α3β2, VH −80 mV, peak current): 60 µM and 60.6 µM | IC50 ([8]; Peak, α3β2, VH −100 mV, peak current): 74.4 µM | recovery of the late current after 6 min ([8]; α3β2, 10 μM toxin, −80 mV): complete | recovery of the peak current after 6 min ([8]; α3β2, 10 μM toxin, −80 mV): complete | times less sensitive than the most sensitive subtype ([8]; α3β2 vs α3β4 (for PhTX-12: α1β1γδ along with α3β4), late current IC50, −80 mV): 26 times | IC50 ([9]; Late, α7, VH −60 mV, based on the area under the current trace (no stable late current)): 8.32 µM | IC50 ([9]; Late, α7, VH −80 mV, based on the area under the current trace (no stable late current)): 4.9 µM and 4.92 µM | IC50 ([9]; Late, α7, VH −100 mV, based on the area under the current trace (no stable late current)): 5.02 µM | IC50 ([9]; Peak, α7, VH −60 mV, peak current): 18.7 µM | IC50 ([9]; Peak, α7, VH −80 mV, peak current): 11.1 µM | IC50 ([9]; Peak, α7, VH −100 mV, peak current): 12.1 µM | recovery of the late current after 6 min ([9]; α7, 10 μM toxin, −80 mV): complete | times less sensitive than the most sensitive subtype ([9]; α7 vs α3β4 (for PhTX-12: α1β1γδ along with α3β4), late current IC50, −80 mV): 49 times | IC50 ([10]; IC50 (95% CI), Late, α3β4, VH −60 mV, late current (1 min), ACh 100 μM): 110 nM | IC50 ([10]; IC50 (95% CI), Late, α3β4, VH −80 mV, late current (1 min), ACh 100 μM): 110 nM | IC50 ([10]; IC50 (95% CI), Late, α3β4, VH −100 mV, late current (1 min), ACh 100 μM): 27 nM | IC50 ([10]; IC50 (95% CI), Peak, α3β4, VH −60 mV, peak current, ACh 100 μM): 3090 nM | IC50 ([10]; IC50 (95% CI), Peak, α3β4, VH −80 mV, peak current, ACh 100 μM): 2620 nM | IC50 ([10]; IC50 (95% CI), Peak, α3β4, VH −100 mV, peak current, ACh 100 μM): 2030 nM | IC50 ([10]; IC50, α3β4, late current, −80 mV): 100 nM | surmountability of late current inhibition ([10]; α3β4, 0.3 μM toxin, late current, −80 mV): insurmountable | surmountability of peak current inhibition by higher ACh concentrations ([10]; α3β4, 10 μM toxin, peak current, −80 mV): surmountable | peak current during the first ACh application after removal of toxin (6 min) ([10]; α3β4, after 10 μM toxin, mean of all cells, −80 mV, not significantly greater than control (p = 0.217)): 119.4 % control response
